Test results as given in US11472803B2, “7-substituted 1-aryl-naphthyridine-3-carboxylic acid amides and use thereof” (Bayer Aktiengesellschaft, priority 2016, dated 2022).

Legend:
human M2 receptor [1] = biological target: T1, human M2 receptor (Homo sapiens, UniProt P08172); experiment: Functional M2-GIRK1/4 activation test: positive cooperativity (α factor), shift of acetylcholine dose-response curve; type: cell-based; conditions: Allosteric EC50 shift of acetylcholine 8-point dose-response curve; CHO-DUKX-M2-GIRK cells; α>1 = positive cooperativity
T1 construct: expressed in transfected cells; host or cells: CHO-DUKX (CHO-DUKX-M2-GIRK)
T1 sequence (P08172 1-466): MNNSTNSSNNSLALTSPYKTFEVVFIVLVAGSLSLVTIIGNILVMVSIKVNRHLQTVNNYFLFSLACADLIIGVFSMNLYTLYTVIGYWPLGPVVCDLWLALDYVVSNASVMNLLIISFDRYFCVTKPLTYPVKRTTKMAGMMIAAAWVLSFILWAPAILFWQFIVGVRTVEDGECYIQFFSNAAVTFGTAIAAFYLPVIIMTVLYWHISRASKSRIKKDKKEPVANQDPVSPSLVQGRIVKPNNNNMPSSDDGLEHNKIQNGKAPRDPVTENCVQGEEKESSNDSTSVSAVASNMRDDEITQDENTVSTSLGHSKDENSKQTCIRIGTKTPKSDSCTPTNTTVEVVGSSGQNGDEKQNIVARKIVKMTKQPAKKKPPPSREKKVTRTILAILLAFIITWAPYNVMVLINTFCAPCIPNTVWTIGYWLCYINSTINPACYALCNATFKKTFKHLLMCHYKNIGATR
From the text: The binding of orthosteric agonists (endogenous ligand: acetylcholine) to the M2 receptor leads to receptor activation or a change in conformation of the receptor in the manner of a shift in equilibrium in favour of the active receptor conformation.
The agonist-induced change in conformation of the M2 receptor results in a Gαi protein activation. […] Under physiological conditions, the result is then a selective efflux of potassium from the cell along the electrochemical gradient. […] The extent of hyperpolarization can therefore be regarded as a measure of the activation of the M2 receptor.
The test cell used is a recombinant CHO-DUKX cell line which has been stably transfected with cDNA coding for the human M2 receptor and with cDNA coding for both GIRK1/4 subunits (CHO-DUKX-M2-GIRK). The transmembrane potential, or the relative changes in the transmembrane potential as a function of substance addition or M2 activation, is determined by means of a voltage-sensitive dye (FLIPR Membrane Potential Assay Kit Blue, Molecular Devices #R8034) and the measurement of cell fluorescence using a proprietary fluorescence imaging instrument.
In accordance with the desired test concentrations, the substances were pre-diluted in loading buffer (see above).
The sowing medium consisted of MEM alpha medium (supplemented with 5% PCS, 2% Glutamax, no genticin).
For the particular measurement, the medium was removed and the cells were laden with the volt-age-sensitive dye for at least 6 min at room temperature (30 μl of loading buffer per 384-well). This was followed, in a first measurement, by the determination of the resting transmembrane potential for a period of 5 sec in 1 sec increments. Thereafter, 10 μl in each case of the test substances diluted in loading buffer are added, followed by a second measurement to determine the transmembrane potential for a period of 50 sec in 1 sec increments.
Finally, the cells are admixed with 10 μl of agonist solution (acetylcholine dissolved in loading buffer). In contrast to the EC50 determination of the test substances (see B-1.1), however, this is not done using one acetylcholine concentration; instead, every concentration of the test substance is combined with an acetylcholine 8-point dose-response curve. […] The M2-mediated GIRK1/4 activation or hyperpolarization is then monitored in a third measurement over a period of 60 sec in 1 sec increments. The shift in the acetylcholine dose-response curve in the presence of increasing concentrations of the test substance is analysed and quantified by means of GraphPad PRISM (Allosteric EC50 shift). […] Positive cooperativity is the hallmark of a positive allosteric modulator. […] The greater the magnitude of the α value, the greater the extent of cooperativity between orthosteric and allosteric.

human M2 receptor [2] = biological target: T1, human M2 receptor; experiment: Functional M2-GIRK1/4 activation test: allosteric potency (EC50) and efficiency at EC20 acetylcholine; type: cell-based; conditions: CHO-DUKX-M2-GIRK cells; for EC50: voltage-sensitive dye, acetylcholine at EC20, in some cases mean of two or more determinations; for Emax / Efficiency: boosting of the acetylcholine effect at EC20 acetylcholine concentration
Outline: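 Positive allosteric modulation measured as boosting of an EC20 acetylcholine response: hyperpolarization via GIRK1/4 in CHO-DUKX-M2-GIRK cells, monitored by membrane-potential dye fluorescence over 60 s after agonist, compound preadded. Hill-function fit gives EC50 and efficiency.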

SMILES | Cooperativity (alpha factor) (human M2 receptor [1]) | EC50 (human M2 receptor [2]) [nM] | Emax (human M2 receptor [2]) [%] | Efficiency (human M2 receptor [2]) [%]
CC(C)C[C@H](NC(=O)c1cn(-c2c(F)cc(F)cc2F)c2nc(N3CC(O)[C@H](O)C3)c(F)cc2c1=O)C(F)(F)F (stereo in doubt) [Example 11, 7-[(3R,4S)-3,4-dihydroxypyrrolidin-1-yl]-6-fluoro-4-oxo-N-[(2S)-1,1,1-trifluoro-4-methylpentan-2-yl]-1-(2,4,6-trifluorophenyl)-1,4-dihydro-1,8-naphthyridine-3-carboxamide] | 60 | 5.8 | 100 | 
CC[C@H](NC(=O)c1cn(-c2c(F)cc(F)cc2Cl)c2nc(N3C[C@@H](O)[C@H](O)C3)c(F)cc2c1=O)C(F)(F)F [Example 40, 1-(2-chloro-4,6-difluorophenyl)-7-[(3R,4R)-3,4-dihydroxypyrrolidin-1-yl]-6-fluoro-4-oxo-N-[(2S)-1,1,1-trifluorobutan-2-yl]-1,4-dihydro-1,8-naphthyridine-3-carboxamide] |  | 2.3 | 98 | 
CC(C)(C)OC(=O)N1CCC(NC(=O)c2cn(-c3c(F)cc(F)cc3F)c3nc(N4C[C@@H](O)[C@H](O)C4)c(F)cc3c2=O)C(F)(F)C1 (stereo partly drawn) [Example 85, tert-Butyl 4-[({7-[(3R,4R)-3,4-dihydroxypyrrolidin-1-yl]-6-fluoro-4-oxo-1-(2,4,6-trifluoro-phenyl)-1,4-dihydro-1,8-naphthyridin-3-yl}carbonyl)amino]-3,3-difluoropiperidine-1-carboxylate] |  | 33 | 100 | 
CC(NC(=O)c1cn(-c2ncc(F)cc2F)c2nc(N3CC[C@H](O)C3)c(F)cc2c1=O)C(F)(F)C(F)(F)F (single isomer, unassigned) [Example 128] |  | 9.8 | 90 | 
CC(C)C(NC(=O)c1cn(-c2c(F)cc(F)cc2F)c2nc(N3C[C@@H](O)[C@@H](O)C3)c(F)cc2c1=O)C(F)(F)F (mixture of isomers) [Example 123, 7-[(3R,4S)-3,4-Dihydroxypyrrolidin-1-yl]-6-fluoro-4-oxo-N-[1,1,1-trifluoro-3-methylbutan-2-yl]-1-(2,4,6-trifluorophenyl)-1,4-dihydro-1,8-naphthyridine-3-carboxamide] |  | 3.1 | 100 | 
CC(C)(NC(=O)c1cn(-c2c(F)cc(F)cc2Cl)c2nc(N3C[C@@H](O)[C@H](O)C3)c(F)cc2c1=O)C(F)F [Example 141, 1-(2-Chloro-4,6-difluorophenyl)-N-(1,1-difluoro-2-methylpropan-2-yl)-7-[(3R,4R)-3,4-dihydroxypyrrolidin-1-yl]-6-fluoro-4-oxo-1,4-dihydro-1,8-naphthyridine-3-carboxamide] |  | 3.4 | 97 | 
CCC(NC(=O)c1cn(-c2c(F)cc(F)cc2F)c2nc(N3C[C@@H](O)[C@H](O)C3)c(F)cc2c1=O)C(C)C (single isomer, unassigned) [Example 30] |  | 2.6 |  | 100
CC(NC(=O)c1cn(-c2c(F)cc(F)cc2F)c2nc(N3C[C@@H](O)[C@H](O)C3)c(F)cc2c1=O)C(F)(F)C(F)(F)F (single isomer, unassigned) [Example 10] | 70 |  |  | 
O=C(N[C@@H](C1CC1)C(F)(F)F)c1cn(-c2c(F)cc(F)cc2Cl)c2nc(N3CC(CO)(CO)C3)c(F)cc2c1=O (single isomer, unassigned) [Example 70] |  | 100 | 86 | 

Now from value to compound:

Cooperativity (alpha factor) (human M2 receptor [1]) | EC50 (human M2 receptor [2]) [nM] | Emax (human M2 receptor [2]) [%] | Efficiency (human M2 receptor [2]) [%] | SMILES
38 | 7.3 | 100 |  | O=C(N[C@@H](C1CC1)C(F)(F)F)c1cn(-c2c(F)cc(F)cc2F)c2nc(N3C[C@@H](O)[C@H](O)C3)c(Br)cc2c1=O [Example 160, 6-Bromo-N-[(1S)-1-cyclopropyl-2,2,2-trifluoroethyl]-7-[(3R,4R)-3,4-dihydroxypyrrolidin-1-yl]-4-oxo-1-(2,4,6-trifluorophenyl)-1,4-dihydro-1,8-naphthyridine-3-carboxamide]
29 | 5 | 100 |  | O=C(NC(C1CC1)(C1CC1)C(F)(F)F)c1cn(-c2c(F)cc(F)cc2F)c2nc(N3C[C@@H](O)[C@H](O)C3)c(F)cc2c1=O [Example 203, N-(1,1-dicyclopropyl-2,2,2-trifluoroethyl)-7-[(3R,4R)-3,4-dihydroxypyrrolidin-1-yl]-6-fluoro-4-oxo-1-(2,4,6-trifluorophenyl)-1,4-dihydro-1,8-naphthyridine-3-carboxamide]
40 | 1.5 |  | 94 | CC(C)(NC(=O)c1cn(-c2c(F)cc(F)cc2Cl)c2nc(N3C[C@@H](O)[C@H](O)C3)c(F)cc2c1=O)C(F)F (single isomer, unassigned) [Example 143]
48 | 2.4 | 100 |  | CC(C)(C)C(C)(C)NC(=O)c1cn(-c2c(F)cc(F)cc2F)c2nc(N3C[C@@H](O)[C@H](O)C3)c(F)cc2c1=O [Example 165, 7-[(3R,4R)-3,4-Dihydroxypyrrolidin-1-yl]-6-fluoro-4-oxo-1-(2,4,6-trifluorophenyl)-N-(2,3,3-trimethylbutan-2-yl)-1,4-dihydro-1,8-naphthyridine-3-carboxamide]
 | 10 | 96 |  | C[C@H](NC(=O)c1cn(-c2c(F)cc(F)cc2Cl)c2nc(N3C[C@@H](O)[C@H](O)C3)c(F)cc2c1=O)C(F)(F)F [Example 224, 1-(2-Chloro-4,6-difluorophenyl)-7-[(3R,4R)-3,4-dihydroxypyrrolidin-1-yl]-6-fluoro-4-oxo-N-[(2S)-1,1,1-trifluoropropan-2-yl]-1,4-dihydro-1,8-naphthyridine-3-carboxamide]
 | 48 | 99 |  | O=C(N[C@@H](C1CC1)C(F)(F)F)c1cn(-c2ncc(F)cc2F)c2nc(N3CC[C@H](O)C3)c(F)cc2c1=O [Example 153, N-[(1S)-1-Cyclopropyl-2,2,2-trifluoroethyl]-1-(3,5-difluoropyridin-2-yl)-6-fluoro-7-[(3S)-3-hydroxypyrrolidin-1-yl]-4-oxo-1,4-dihydro-1,8-naphthyridine-3-carboxamide]
 | 1 |  | 100 | O=C(NC(C1CC1)C(F)(F)C(F)(F)F)c1cn(-c2c(F)cc(F)cc2F)c2nc(N3C[C@@H](O)[C@H](O)C3)c(F)cc2c1=O (single isomer, unassigned) [Example 202]
 | 26 |  | 86 | O=C(NCC(F)(F)F)c1cn(-c2c(F)cc(F)cc2Cl)c2nc(N3C[C@@H](O)[C@H](O)C3)c(F)cc2c1=O (single isomer, unassigned) [Example 223]
 | 7.4 | 95 |  | C[C@H](NC(=O)c1cn(-c2c(F)cc(F)cc2F)c2nc(N3C[C@@H](O)[C@H](O)C3)c(F)cc2c1=O)c1ccccc1 [Example 167, 7-[(3R,4R)-3,4-Dihydroxypyrrolidin-1-yl]-6-fluoro-4-oxo-N-[(1S)-1-phenylethyl]-1-(2,4,6-tri-fluorophenyl)-1,4-dihydro-1,8-naphthyridine-3-carboxamide]
 | 16 | 94 |  | O=C(N[C@@H](C1CC1)C(F)(F)F)c1cn(-c2c(F)cc(F)cc2F)c2nc(N3CCOCC3)c(F)cc2c1=O [Example 147, N-[(1S)-Cyclopropyl-2,2,2-trifluoroethyl]-6-fluoro-7-(morpholin-4-yl)-4-oxo-1-(2,4,6-trifluorophenyl)-1,4-dihydro-1,8-naphthyridine-3-carboxamide]
